Laboratory results as given in US20230381142A1, “ANTILEISHMANIAL COMPOUNDS, COMPOSITIONS AND USE THEREOF” (TRUSTEES OF BOSTON UNIVERSITY, priority 2022, published 2023).

Test system: L. donovani intracellular amastigotes in B10R cells
Experiment: UCSD L. donovani infection assay (Assay Conditions D)
Format: cell-based
Conditions: B10R cells; for L. donovani amastigotes EC75 (B10R cells): footnote d
Protocol: (§1) Assay Conditions D: B10R cells (CVCL_0155) were seeded at 300 cells/well, and L. donovani WT promastigotes in stationary phase (7th day after passage) were added at 6,000 parasites/well (ratio of 20 parasites/cell). Both cells and parasites were seeded in DMEM High-Glucose medium (Gibco, cat. no. 11995065) containing 5% Fetal Bovine Serum (Sigma-Aldrich, cat. no. F2442) and 1% Penicillin-Streptomycin (Gibco, cat. no. 15140122). Cells and parasites were incubated in the presence of the compounds for 72 h at 37° C. and 5% C02. Plates were then fixed with 4% formaldehyde solution for at least 1 h, then washed with 1×PBS and stained with 5 μg/mL DAPI. Plates were read using an ImageXpress microscope (Molecular Devices) and analyzed by MetaXpress software (Molecular Devices) using a custom module optimized for this assay. […] Compounds were tested in a 10-point 2-fold serial dilution in 3 technical replicates, and 2 biological replicates. After 72 h, plates were fixed and stained with DAPI as described above. Images were acquired on an ImageXpress microscope, and analyzed using the MetaXpress custom module.
as §1, with “Compounds were obtained as 0.2 μmoles of dried film for primary single point screening. Each compound was diluted in DMSO to 10 μM final testing concentration. These compounds were tested in 2 biological replicates. The compounds were pre-spotted onto 384-well assay plates in single concentration.” for “Assay Conditions D:”, “CO2.” for “C02.”, “module. The DRCs were plotted, half-effective concentration (EC50) and half-cytotoxic concentration (CC50) were calculated using GraphPad Prism Software, version 6.05 (GraphPad Software, San Diego, CA).” for “module.”

| SMILES | L. donovani amastigotes EC75 (μM, B10R cells) | L. donovani amastigotes EC75 (B10R cells) |
| --- | --- | --- |
| CCn1cc(N2C(=O)c3[nH]nc(CC(C)C)c3C2c2ccc(Br)cc2F)cn1 (stereo not drawn) [BUCMD00664] | >10 µM |  |
| CC(C)Cc1n[nH]c2c1C(c1ccccc1C(F)(F)F)N(c1cnn(C(C)C)c1)C2=O (stereo not drawn) [BUCMD00679] | 10.4 µM |  |
| CC(C)Cc1n[nH]c2c1C(c1ccc(Cl)cc1F)N(c1cnn(C(C)C)c1)C2=O (stereo not drawn) [BUCMD00675] | >10 µM |  |
| CCn1cc(N2C(=O)c3[nH]nc(CC(C)C)c3C2c2ccccc2Cl)cn1 (stereo not drawn) [BUCMD00668] | 5.8 µM |  |
| CC(C)Cc1n[nH]c2c1C(c1ccc(F)cc1Cl)N(c1cnn(C(C)C)c1)C2=O (stereo not drawn) [BUCMD00674] | 10.0 µM |  |
| Cc1ccc(N2C(=O)c3[nH]nc(CC(C)C)c3C2c2ccc(F)cc2)nc1 (stereo not drawn) [BUCMD00174] | >10 µM |  |
| Cc1cc(F)ccc1C1c2c(CC(C)C)n[nH]c2C(=O)N1c1ccc(C(=O)N2CCCC2)cc1 (stereo not drawn) [BUCMD00726] | >10 µM |  |
| COc1cc(OC)cc(N2C(=O)c3[nH]nc(CC(C)C)c3C2c2ccc(F)cc2)c1 (stereo not drawn) [BUCMD00165] | >10 µM |  |
| CCn1cc(N2C(=O)c3[nH]nc(CC(C)C)c3C2c2ccc(F)cc2C)cn1 (stereo not drawn) [BUCMD00663] | 4.0 µM |  |
| COc1cc(N2C(=O)c3[nH]nc(CC(C)C)c3C2c2ccc(F)cc2)ccn1 (stereo not drawn) [BUCMD00163] | >10 µM |  |
| CC(C)Cc1n[nH]c2c1C(C1CCCCC1)N(c1ccc3ncnn3c1)C2=O (stereo not drawn) [BUCMD00157] | >10 µM |  |
| COc1cc(N2C(=O)c3[nH]nc(CC(C)C)c3C2c2cncc(Br)c2)ccc1F (stereo not drawn) [BUCMD00183] | >10 µM |  |
| CCn1cc(N2C(=O)c3[nH]nc(CC(C)C)c3C2c2sccc2C)cn1 (stereo not drawn) [BUCMD00672] | 6.9 µM |  |
| Cc1cc(F)ccc1C1c2c(CC(C)C)n[nH]c2C(=O)N1c1cncc(F)c1 (stereo not drawn) [BUCMD00693] | >10 µM |  |
| COc1ccc(OC)c(N2C(=O)c3[nH]nc(CC(C)C)c3C2c2ccc(OC)nc2)c1 (stereo not drawn) [BUCMD00177] | >10 µM |  |
| COc1ncc(N2C(=O)c3[nH]nc(CC(C)C)c3C2c2ccc(Cl)cc2F)cc1F (stereo not drawn) [BUCMD00731] | >10 µM |  |
| Cc1cc(F)ccc1C1c2c(CC(C)C)n[nH]c2C(=O)N1c1ccn(C)n1 (stereo not drawn) [BUCMD00652] | >10 µM |  |
| CC(C)Cc1n[nH]c2c1C(c1ccc(F)cc1F)N(c1cnn(C(C)C)c1)C2=O (stereo not drawn) [BUCMD00678] | >10 µM |  |
| COc1cc(N2C(=O)c3[nH]nc(CC(C)C)c3C2c2cncc(Br)c2)ccn1 (stereo not drawn) [BUCMD00181] | >10 µM |  |
| COc1ccc(OC)c(N2C(=O)c3[nH]nc(CC(C)C)c3C2c2cncc(Br)c2)c1 (stereo not drawn) [BUCMD00182] | >10 µM |  |
| CC(C)Cc1n[nH]c2c1C(c1ccccc1Cl)N(c1ccc(C(=O)N3CCCC3)cc1)C2=O (stereo not drawn) [BUCMD00727] | >10 µM |  |
| Cc1ccc(C2c3c(CC(C)C)n[nH]c3C(=O)N2c2ccc3ncnn3c2)cc1 (stereo not drawn) [BUCMD00156] | >10 µM |  |
| COc1ncccc1C1c2c(CC(C)C)n[nH]c2C(=O)N1c1ncc(Br)cc1C (stereo not drawn) [BUCMD00190] | >10 µM |  |
| COc1ncccc1C1c2c(CC(C)C)n[nH]c2C(=O)N1c1ncc(Cl)cc1C (stereo not drawn) [BUCMD00191] | >10 µM |  |
| COc1ncc(N2C(=O)c3[nH]nc(CC(C)C)c3C2c2ccccc2Cl)cc1F (stereo not drawn) [BUCMD00732] | 1.9 µM |  |
| CC(C)Cc1n[nH]c2c1C(c1ccc(F)cc1Br)N(c1ccc3ncnn3c1)C2=O (stereo not drawn) [BUCMD00160] | >10 µM |  |

| SMILES | L. donovani amastigotes EC75 (μM, B10R cells) | L. donovani amastigotes EC75 (B10R cells) |
| --- | --- | --- |
| CCn1cc(N2C(=O)c3[nH]nc(CC(C)C)c3C2c2ccc(F)cc2Br)cn1 (stereo not drawn) [BUCMD00669] |  | 0.7 µM |
| CC(C)Cc1n[nH]c2c1C(c1cc(C(F)(F)F)ccc1Br)N(c1ccc3ncnn3c1)C2=O (stereo not drawn) [BUCMD00161] | >10 µM |  |
| CC(C)Cc1n[nH]c2c1C(c1ccc(Cl)cc1F)N(c1cncc(F)c1)C2=O (stereo not drawn) [BUCMD00695] |  | 0.5 µM |
| CC(C)Cc1n[nH]c2c1C(c1ccc(F)cc1F)N(c1cncc(F)c1)C2=O (stereo not drawn) [BUCMD00698] | 2.3 µM |  |
| Cc1ccsc1C1c2c(CC(C)C)n[nH]c2C(=O)N1c1cncc(F)c1 (stereo not drawn) [BUCMD00702] | 7.3 µM |  |
| COc1ncc(N2C(=O)c3[nH]nc(CC(C)C)c3C2c2ccc(F)cc2F)cc1F (stereo not drawn) [BUCMD00734] | 1.5 µM |  |
| Cc1ccccc1C1c2c(CC(C)C)n[nH]c2C(=O)N1c1ccn(C)n1 (stereo not drawn) [BUCMD00657] | >10 µM |  |
| CC(C)Cc1n[nH]c2c1C(c1ccc(F)cc1F)N(c1ccn(C)n1)C2=O (stereo not drawn) [BUCMD00659] | >10 µM |  |
| Cc1cc(N2C(=O)c3[nH]nc(CC(C)C)c3C2c2ccc(Cl)cc2)n(C)n1 (stereo not drawn) [BUCMD00193] | >10 µM |  |
| CC(C)Cc1n[nH]c2c1C(c1ccc(F)cc1Br)N(c1ccn(C)n1)C2=O (stereo not drawn) [BUCMD00658] | >10 µM |  |
| Cc1cc(Cl)cnc1N1C(=O)c2[nH]nc(CC(C)C)c2C1c1ccc(F)cc1 (stereo not drawn) [BUCMD00168] | >10 µM |  |
| COc1ncc(N2C(=O)c3[nH]nc(CC(C)C)c3C2c2ccccc2C)cc1F (stereo not drawn) [BUCMD00733] | 1.0 µM |  |
| CC(C)Cc1n[nH]c2c1C(c1ccc(F)cc1)N(c1cncc(Br)c1)C2=O (stereo not drawn) [BUCMD00172] | >10 µM |  |
| Cc1cc(N2C(=O)c3[nH]nc(CC(C)C)c3C2c2ccc(Br)cc2)n(C)n1 (stereo not drawn) [BUCMD00192] | >10 µM |  |
| Cc1ccccc1C1c2c(CC(C)C)n[nH]c2C(=O)N1c1cnn(C(C)C)c1 (stereo not drawn) [BUCMD00677] | >10 µM |  |
| COc1cc(N2C(=O)c3[nH]nc(CC(C)C)c3C2c2c(C)nn(C)c2Cl)ccc1F (stereo not drawn) [BUCMD00180] | >10 µM |  |
| CC(C)Cc1n[nH]c2c1C(c1ccccc1F)N(c1ccc(C(=O)N3CCCC3)cc1)C2=O (stereo not drawn) [BUCMD00715] | >10 µM |  |
| COc1cccc(N2C(=O)c3[nH]nc(CC(C)C)c3C2c2cncc(Br)c2)c1 (stereo not drawn) [BUCMD00185] | >10 µM |  |
| Cc1ccnc(N2C(=O)c3[nH]nc(CC(C)C)c3C2c2ccc(F)cc2)c1 (stereo not drawn) [BUCMD00173] | >10 µM |  |
| CC(C)Cc1n[nH]c2c1C(c1ccccc1Cl)N(c1cnn(C(C)C)c1)C2=O (stereo not drawn) [BUCMD00676] | >10 µM |  |
| CC(C)Cc1n[nH]c2c1C(c1ccc(Br)cc1F)N(c1ccn(C)n1)C2=O (stereo not drawn) [BUCMD00653] | >10 µM |  |
| CC(C)Cc1n[nH]c2c1C(c1ccccc1Cl)N(c1ccc(N3CCN(C)CC3)nc1)C2=O (stereo not drawn) [BUCMD00720] | 5.1 µM |  |
| CCn1cc(N2C(=O)c3[nH]nc(CC(C)C)c3C2c2ccccc2C)cn1 (stereo not drawn) [BUCMD00667] | >10 µM |  |
| COc1ncccc1C1c2c(CC(C)C)n[nH]c2C(=O)N1c1ncccc1C (stereo not drawn) [BUCMD00189] | >10 µM |  |
| COc1ccc(OC)c(C2c3c(CC(C)C)n[nH]c3C(=O)N2c2cc(C)ccn2)c1 (stereo not drawn) [BUCMD00197] | >10 µM |  |
